Biological target: GHS-R (Homo sapiens, UniProt Q92847)
Assay: cell based assay of GHS-R antagonist/agonist activity
Parameters: key: A refers to a compound having antagonist activity with Ki<100 nM in a cell based assay; B refers to a compound having agonist activity with EC50<100 nM in a cell based assay; C refers to a compound having antagonist activity of Ki>100 nM and <1500 nM in a cell based assay; D refers to a compound having antagonist activity with Ki, <100 nM and agonist activity with EC50<100 nM in a cell-based assay; E refers to other exemplary compounds
Conditions: GHS-R antagonist Ki and/or agonist EC50 class
Description: Cell-Based Activity Assays. For example, the ability of the compound to modulate accumulation of a second messenger signaling component downstream of GHS-R can be evaluated. For example, inositol phosphates (IP), as a result of Gq signaling in a mammalian cell, e.g., a Cos-7 cells. Other tissue culture cells, Xenopus oocytes, and primary cells can also be used.
Phosphatidylinositol turnover assay. One day after transfection COS-7 cells are incubated for 24 hours with 5 μCi of [^3H]-myo-inositol in 1 ml medium supplemented with 10% fetal calf serum, 2 mM glutamine and 0.01 mg/ml gentamicin per well. Cells are then washed twice in buffer, 20 mM HEPES, pH 7.4, supplemented with 140 mM NaCl, 5 mM KCl, 1 mM MgSO4, 1 mM CaCl2, mM glucose, 0.05% (w/v) bovine serum; and incubated in 0.5 ml buffer supplemented with 10 mM LiCl at 37° C. for 30 min. For some assays, it is also useful to incubate the cells with adenosine deaminase ADA (200 U/mg, Boehringer Mannheim, Germany) for 30 min in a concentration of 1 U/ml.
After incubation with the compound of interest for 45 min at 37° C., cells are extracted with 10% ice-cold perchloric acid and placed on ice for 30 min. The resulting supernatants are neutralized with KOH in HEPES buffer, and [^3H]-inositol phosphate is purified on Bio-Rad AG 1-X8 anion exchange resin as described. Assays can be run in duplicate, triplicate, etc.
Other second messenger assays. Another second messenger that can be evaluated is Ca^2+. Ca^2+ mobilization can be evaluated using a calcium sensitive detector, such as aequorin protein or a dye, e.g., FURA-2. In an exemplary assay, calcium mobilization is evaluated in a recombinant cell that expresses GHS-R and aequorin.
Gene expression assay. HEK293 cells (30 000 cells/well) seeded in 96-well plates are transiently transfected with a mixture of pFA2-CREB and pFR-Luc reporter plasmid (PathDetect™ CREB trans-Reporting System, Stratagene) and nucleic acid encoding GHS. One day after transfection, cells are treated with the compound of interest in an assay volume of 100 μl medium for 5 hrs. After treatment, cells are cultured in low serum (2.5%). After the incubation period, the assay is ended by washing the cells twice with PBS and adding 100 μl luciferase assay reagent (LucLite™, Packard Bioscience). Luminescence is measured (e.g., as relative light units (RLU)) using in a luminometer such as the TopCounter™ (Packard Bioscience) for 5 sec.
IC50 and EC50 values can be determined by nonlinear regression, e.g., using the Prism 3.0 software (GraphPad Software, San Diego).

Sequence of GHS-R (Q92847 whole entry, species assumed): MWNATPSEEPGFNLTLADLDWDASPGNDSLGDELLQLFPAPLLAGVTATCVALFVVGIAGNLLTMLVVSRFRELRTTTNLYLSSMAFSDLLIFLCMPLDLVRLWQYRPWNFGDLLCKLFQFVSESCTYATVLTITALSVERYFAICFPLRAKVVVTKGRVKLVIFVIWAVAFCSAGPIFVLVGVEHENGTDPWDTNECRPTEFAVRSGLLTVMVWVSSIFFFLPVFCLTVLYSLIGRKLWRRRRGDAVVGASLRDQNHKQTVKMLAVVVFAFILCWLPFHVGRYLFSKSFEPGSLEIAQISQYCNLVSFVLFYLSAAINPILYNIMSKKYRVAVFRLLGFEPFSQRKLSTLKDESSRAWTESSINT

CS(=O)(=O)N1CC2(CCN(C(=O)[C@@H](COCc3ccccc3)NC(=O)C3CNC3)CC2)c2ccccc21 [Compound 36]
Activity: C (C refers to a compound having antagonist activity of Ki>100 nM and <1500 nM in a cell based assay)

CS(=O)(=O)N1CC2(CCN(C(=O)[C@@H](COCc3ccccc3)NS(=O)(=O)CCN3CCCCC3)CC2)c2ccccc21.Cl [Compound 37]
Activity: C (C refers to a compound having antagonist activity of Ki>100 nM and <1500 nM in a cell based assay)

CCCN1CCC(C(=O)N[C@H](COCc2ccccc2)C(=O)N2CCC3(CC2)CN(S(C)(=O)=O)c2ccccc23)CC1 [Compound 38]
Activity: C (C refers to a compound having antagonist activity of Ki>100 nM and <1500 nM in a cell based assay)

CS(=O)(=O)N1CC2(CCN(C(=O)[C@@H](COCc3ccccc3)NC(=O)CN3CCC3)CC2)c2ccccc21 [Compound 39]
Activity: C (C refers to a compound having antagonist activity of Ki>100 nM and <1500 nM in a cell based assay)

CN(C)Cc1ccc(C(=O)N[C@H](COCc2ccccc2)C(=O)N2CCC3(CC2)CN(S(C)(=O)=O)c2ccccc23)cc1 [Compound 40]
Activity: C (C refers to a compound having antagonist activity of Ki>100 nM and <1500 nM in a cell based assay)

CS(=O)(=O)N1CC2(CCN(C(=O)[C@@H](COCc3ccccc3)NC(=O)NCCO)CC2)c2ccccc21 [Compound 41]
Activity: C (C refers to a compound having antagonist activity of Ki>100 nM and <1500 nM in a cell based assay)

CN1CCC(C(=O)N[C@@H](Cc2ccccc2)C(=O)N2CCC3(CC2)CN(S(C)(=O)=O)c2ccccc23)CC1 [Compound 42]
Activity: C (C refers to a compound having antagonist activity of Ki>100 nM and <1500 nM in a cell based assay)

CC(C)CCN1CCC(C(=O)N[C@H](COCc2ccccc2)C(=O)N2CCC3(CC2)CN(S(C)(=O)=O)c2ccccc23)CC1 [Compound 43]
Activity: C (C refers to a compound having antagonist activity of Ki>100 nM and <1500 nM in a cell based assay)

CC(C)(C)C(=O)N[C@H](COCc1ccccc1)C(=O)N1CCC2(CC1)CN(S(C)(=O)=O)c1ccccc12 [Compound 44]
Activity: C (C refers to a compound having antagonist activity of Ki>100 nM and <1500 nM in a cell based assay)

CN1CCC(C(=O)N[C@H](Cc2ccccc2)C(=O)N2CCC3(CC2)CN(S(C)(=O)=O)c2ccccc23)CC1 [Compound 45]
Activity: C (C refers to a compound having antagonist activity of Ki>100 nM and <1500 nM in a cell based assay)

CN1CCN(CCS(=O)(=O)N[C@H](COCc2ccccc2)C(=O)N2CCC3(CC2)CN(S(C)(=O)=O)c2ccccc23)CC1 [Compound 46]
Activity: C (C refers to a compound having antagonist activity of Ki>100 nM and <1500 nM in a cell based assay)

CN(C)CC(=O)N[C@H](COCc1ccccc1)C(=O)N1CCC2(CC1)CN(S(=O)(=O)CC(F)(F)F)c1ccccc12 [Compound 47]
Activity: C (C refers to a compound having antagonist activity of Ki>100 nM and <1500 nM in a cell based assay)

CN1CC2(CCN(C(=O)[C@@H](COCc3ccccc3)NC(=O)OC(C)(C)C)CC2)c2ccccc21 [Compound 48]
Activity: C (C refers to a compound having antagonist activity of Ki>100 nM and <1500 nM in a cell based assay)

CC(C)N1CC=C(C(=O)N[C@H](COCc2ccccc2)C(=O)N2CCC3(CC2)CN(S(C)(=O)=O)c2ccccc23)CC1.Cl [Compound 49]
Activity: C (C refers to a compound having antagonist activity of Ki>100 nM and <1500 nM in a cell based assay)

CC(C)(C)OC(=O)NC(C)(C)C(=O)N[C@H](COCc1ccccc1)C(=O)N1CCC2(CC1)CN(S(C)(=O)=O)c1ccccc12 [Compound 50]
Activity: E

CC(=O)N[C@H](COCc1ccccc1)C(=O)N1CCC2(CC1)CN(S(C)(=O)=O)c1ccccc12 [Compound 51]
Activity: E

CC(C)(C)CC(=O)N[C@H](COCc1ccccc1)C(=O)N1CCC2(CC1)CN(S(C)(=O)=O)c1ccccc12 [Compound 52]
Activity: E

CS(=O)(=O)N1CC2(CCN(C(=O)[C@@H](COCc3ccccc3)NC(=O)c3ccccn3)CC2)c2ccccc21 [Compound 53]
Activity: E

CS(=O)(=O)N1CC2(CCN(C(=O)[C@@H](COCc3ccccc3)NC(=O)CO)CC2)c2ccccc21 [Compound 54]
Activity: E

CS(=O)(=O)N1CC2(CCN(C(=O)[C@@H](COCc3ccccc3)NC(=O)Cn3ccnc3)CC2)c2ccccc21 [Compound 55]
Activity: E

CC(C)(C)OC(=O)N[C@H](COCc1ccccc1)C(=O)N1CCC2(CC1)CNc1ccccc12 [Compound 56]
Activity: E

COCC(=O)N1CC2(CCN(C(=O)[C@@H](COCc3ccccc3)NC(=O)OC(C)(C)C)CC2)c2ccccc21 [Compound 57]
Activity: E

COc1cccc(C(=O)N2CC3(CCN(C(=O)[C@@H](COCc4ccccc4)NC(=O)OC(C)(C)C)CC3)c3ccccc32)c1 [Compound 58]
Activity: E

CC(=O)OCC(=O)N1CC2(CCN(C(=O)[C@@H](COCc3ccccc3)NC(=O)OC(C)(C)C)CC2)c2ccccc21 [Compound 59]
Activity: E

COC(=O)CC(=O)N1CC2(CCN(C(=O)[C@@H](COCc3ccccc3)NC(=O)OC(C)(C)C)CC2)c2ccccc21 [Compound 60]
Activity: E

CC(C)(C)OC(=O)N[C@H](COCc1ccccc1)C(=O)N1CCC2(CC1)CN(C(=O)CO)c1ccccc12 [Compound 61]
Activity: E

CC(C)(C)OC(=O)N[C@H](COCc1ccccc1)C(=O)N1CCC2(CC1)CN(C(=O)CC(=O)O)c1ccccc12 [Compound 62]
Activity: E

CN(C)CC(=O)N1CC2(CCN(C(=O)[C@@H](COCc3ccccc3)NC(=O)OC(C)(C)C)CC2)c2ccccc21 [Compound 63]
Activity: E

CC(C)(C)OC(=O)N[C@H](COCc1ccccc1)C(=O)N1CCC2(CC1)CN(S(=O)(=O)CC(F)(F)F)c1ccccc12 [Compound 64]
Activity: E

COc1cccc(NC(=O)N2CC3(CCN(C(=O)[C@@H](COCc4ccccc4)NC(=O)OC(C)(C)C)CC3)c3ccccc32)c1 [Compound 65]
Activity: E

CC(C)(C)OC(=O)N[C@H](COCc1ccccc1)C(=O)N1CCC2(CC1)CN(C(=O)Cn1ccnc1)c1ccccc12 [Compound 66]
Activity: E

CC(C)(C)OC(=O)N[C@H](COCc1ccccc1)C(=O)N1CCC2(CC1)CN(S(=O)(=O)Cc1ccccc1)c1ccccc12 [Compound 67]
Activity: E

CN(C)CC(=O)N[C@H](COCc1ccccc1)C(=O)N1CCC2(CC1)CNc1ccccc12 [Compound 68]
Activity: E

COc1cccc(NC(=O)N2CC3(CCN(C(=O)[C@@H](COCc4ccccc4)NC(=O)CN(C)C)CC3)c3ccccc32)c1 [Compound 69]
Activity: E

CNCC(=O)N[C@H](COCc1ccccc1)C(=O)N1CCC2(CC1)CN(S(C)(=O)=O)c1ccccc12 [Compound 70]
Activity: E

CC(=O)OCC(=O)N1CC2(CCN(C(=O)[C@@H](COCc3ccccc3)NC(=O)CN(C)C)CC2)c2ccccc21 [Compound 71]
Activity: E

COC(=O)CC(=O)N1CC2(CCN(C(=O)[C@@H](COCc3ccccc3)NC(=O)CN(C)C)CC2)c2ccccc21 [Compound 72]
Activity: E

COCC(=O)N1CC2(CCN(C(=O)[C@@H](COCc3ccccc3)NC(=O)CN(C)C)CC2)c2ccccc21 [Compound 73]
Activity: E

COc1cccc(C(=O)N2CC3(CCN(C(=O)[C@@H](COCc4ccccc4)NC(=O)CN(C)C)CC3)c3ccccc32)c1 [Compound 74]
Activity: E

CN(C)CC(=O)N[C@H](COCc1ccccc1)C(=O)N1CCC2(CC1)CN(C(=O)CO)c1ccccc12 [Compound 75]
Activity: E

C[C@H](N)C(=O)N[C@H](COCc1ccccc1)C(=O)N1CCC2(CC1)CN(S(C)(=O)=O)c1ccccc12 [Compound 78]
Activity: E

C[C@@H](N)C(=O)N[C@H](COCc1ccccc1)C(=O)N1CCC2(CC1)CN(S(C)(=O)=O)c1ccccc12 [Compound 79]
Activity: E

CS(=O)(=O)N1CC2(CCN(C(=O)[C@@H](COCc3ccccc3)NC(=O)C3=NCCN3)CC2)c2ccccc21 [Compound 80]
Activity: E

C[C@@H](C(=O)N[C@H](COCc1ccccc1)C(=O)N1CCC2(CC1)CN(S(C)(=O)=O)c1ccccc12)N(C)C [Compound 81]
Activity: E

— patent US7897765B2, “Therapeutic compounds and uses thereof” (Elixir Pharmaceuticals, Inc., priority 2003, dated 2011)
